{
  "source": "ChEMBL document CHEMBL5247618",
  "about": "“Discovery and optimization of 4-anilinoquinazoline derivatives spanning ATP binding site and allosteric site as effective EGFR-C797S inhibitors” (Eur J Med Chem, 2022)",
  "key": {"[1]": {"test": "in vivo", "details": "Sprague-Dawley, rat, po, 10 mg/kg"}, "[2]": {"test": "in vivo", "details": "Sprague-Dawley, rat, po, 10 mg/kg", "remark": "listed apart in the source"}, "[3]": {"test": "in vivo", "details": "Sprague-Dawley, rat, iv, 1 mg/kg"}, "[4]": {"test": "in vivo", "details": "Sprague-Dawley, rat, iv, 1 mg/kg", "remark": "listed apart in the source"}},
  "data": [
    {"compound": "COc1cc2c(Nc3ccc(Oc4ccccc4)cc3)ncnc2cc1OCC1CCN(C)CC1", "values": [
      {"measurement": "Cmax", "setting": "[1]", "value": 7.43, "unit": "ng/mL"},
      {"measurement": "bioavailability", "setting": "[2]", "value": 9.33, "unit": "%"},
      {"measurement": "Cmax", "setting": "[3]", "value": 69.6, "unit": "ng/mL"},
      {"measurement": "half-life", "setting": "[4]", "value": 1.97, "unit": "h"}
    ]}
  ]
}
